Experimental data as given in US20240024403A1, “Compositions and Methods for Managing Weight” (Unigen, Inc., priority 2012, published 2024).

Columns and labels:
ghrelin = assay: Plasma active ghrelin level in DIO mice (ELISA); assay type: in vivo
Method: (§1) Obese mice were treated with various three component compositions to test the anti-obesity and appetite effects of such compositions. Three component Composition 1 (Magnolia:Morus:Yerba Mate) produced according to the Example 38, three component Composition 2 (Magnolia:Morus:Mutamba) produced according to the Example 42, three component Composition 3 (Morus: Rosemary:Yerba Mate) produced according to the Example 39, and three component Composition 9 (Morus:Rosemary:Areca) produced according to the Example 41, were each separately administrated orally to DIO mice as described in the Example 48. The high fat diet (HFD) mice were divided into multiple treatment groups with a total of 10 animals per group. The mice were treated with one of the following: Composition 1 (1300 mg/kg/day), Composition 2 (1300 mg/kg/day), Composition 3 (1700 mg/kg/day), or Composition 9 (1700 mg/kg/day). Control groups included a normal diet group given vehicle only (ND, negative control), a high fat diet group given vehicle only (HFD, negative control), an orlistat group (ORI, 40 mg/kg, 2 times/day, positive control), and a sibutramine group (10 mg/kg, 1 time/day, positive control). Body weight and feed intake were measured daily for 2 weeks after treatment and then twice a week until the end of the 7 week study. At week 2 and week 7 after treatment, mice were fasted for 16 hours and then five animals were examined to measure plasma concentrations of leptin and ghrelin. Leptin and ghrelin levels were measured by using commercial ELISA kits specific for leptin or ghrelin (Millipore Co., Billerica, MA) according to the manufacturer's instructions. Measurements were taken using a microplate reader (Victor™ X3, PerkinElmer Inc., USA) and analyzed with PerkinElmer 2030 workstation computer software.

[1] = High fat diet induced obesity (DIO) rat model; assay type: in vivo, Spraue-Dawley rats; conditions: for Total Body Weight: in g (unit assumed)
Method: Male Spraue-Dawley rats, age 4-6 weeks (OrientBio, Inc.; Seongnam, Korea) were housed individually in Polycarbonate cages in a room with a 12 hr:12 hr light-dark cycle and an ambient temperature of 24° C. All the rats were fed a commercial chow diet for 1 week after arrival in the animal facility. Rats were then divided into normal and obesity groups and fed with normal diet (ND) and high fat diets (HFD) respectively. The HFD group was divided into multiple treatment groups: a high fat diet vehicle group (HFD), an orlistat (purchased as OTC drug Alli®) positive control treatment group (ORI, 80 mg/kg of animal weight, 2 times/day). In some examples, sibutramine was used as a positive control (SIB, 3 mg/kg for rat studies and […] for mice studies).
Body weight was measured once or twice per week and feed intake was measured twice per week. Body weight gain was determined for each study group by measurement of the body weight difference for each study group between each successive week of the study. At the end of the experimental period, following a 12-h fasting period, the animals were anesthetized with ether, and blood was drawn from the abdominal vein. Liver and kidney and adipose tissues (epididymal, retroperitoneal, perirenal adipose tissues) were removed from each animal, rinsed with physiological saline, and weighted. Serum concentrations of glucose, total cholesterol and LDL-cholesterol were determined using automatic analyzer (INTEGRA 400, Roche, Germany). Statistical significance of test results was performed by Student's t-test.

CCK peptide = CCK peptide levels in DIO mice (CCK ELISA); assay type: in vivo; conditions: mice on high fat diet; after 7 weeks of administering; % ± SD
Method: Therefore, the effect on CCK peptide levels in mice from treatment with Composition 2 (Magnolia:Morus:Mutamba), produced according to the Example 42, or Composition 3 (Morus:Rosemary:Yerba Mate), produced according to the Example 39, was examined to determine the extent to which weight gain and/or appetite were affected through this peptide hormone pathway. Briefly, CCK peptide levels were measured after 7 weeks of administering Compositions […] and 3 to mice on a high fat diet as described in Example 48. Negative controls include mice on a normal diet (NC) and mice on a high fat diet (HFD), each group administered vehicle only. The positive controls were orlistat and sibutrimine. CCK levels were detected using a CCK ELISA assay kit according to the manufacturer's instructions (Abnova, Taipei City, Tiawan). Measurements were performed using microplate reader Victor™ X3 (PerkinElmer Inc., Waltham, MA) and computer software on the PerkinElmer 2030 workstation.

leptin = assay: Plasma leptin level in DIO mice (ELISA); assay type: in vivo
Method: as §1

[2] = DIO mice plasma, 2-week treatment
[3] = DIO mice plasma, 7-week treatment
[4] = SIB 3 mg/kg, DIO rats, blood at end of study
[5] = SIB 3 mg/kg, rats fed a high fat diet
[6] = SIB 3 mg/kg, rats fed a high fat diet, 42 days

## CC(C)CC(N(C)C)C1(c2ccc(Cl)cc2)CCC1 (centres unmarked) [SIB, sibutramine]
ghrelin; [2]
  Active Ghrelin (pg/ml) 2-week: 1001.3 pg/mL
ghrelin; [3]
  Active Ghrelin (pg/ml) 7-week: 600.1 pg/mL
ghrelin; week 2 and week 7, orlistat 40 mg/kg 2 times/day, sibutramine 10 mg/kg 1 time/day
  active ghrelin level vs HFD group: no effect on active ghrelin levels at either week 2 or week 7
[1]; [4]
  Fasting Glucose: 136.00 mg/dL
  T-chol: 106.60 mg/dL
  Triglyceride: 41.10 mg/dL
[1]; [5]
  Fat Deposit Weight: Epididymal Fat: 6.698
  Fat Deposit Weight: Perirenal Fat: 1.562
  Fat Deposit Weight: Retroperitoneal Fat: 3.190
  Fat Deposit Weight: Total Fat: 11.450
[1]; [6]
  Food Efficiency Ratio (FER): 0.155
  Food Intake: 13.880 g/day
  Weight Gain: 2.160 g/day
[1]; day 0, SIB 3 mg/kg, DIO rats
  Total Body Weight: 364.15
[1]; day 1, SIB 3 mg/kg, DIO rats
  Total Body Weight: 368.06
[1]; day 1 vs day 0, SIB 3 mg/kg, DIO rats
  Weight Gain: 3.91
[1]; day 2, SIB 3 mg/kg, DIO rats
  Total Body Weight: 356.78
[1]; day 2 vs day 0, SIB 3 mg/kg, DIO rats
  Weight Gain: −7.37
[1]; day 3, SIB 3 mg/kg, DIO rats
  Total Body Weight: 357.21
[1]; day 3 vs day 0, SIB 3 mg/kg, DIO rats
  Weight Gain: −6.94
[1]; day 4, SIB 3 mg/kg, DIO rats
  Total Body Weight: 358.78
[1]; day 4 vs day 0, SIB 3 mg/kg, DIO rats
  Weight Gain: −5.37
[1]; day 7, SIB 3 mg/kg, DIO rats
  Total Body Weight: 368.11
[1]; day 7 vs day 0, SIB 3 mg/kg, DIO rats
  Weight Gain: 3.96
[1]; day 10, SIB 3 mg/kg, DIO rats
  Total Body Weight: 377.69
[1]; day 10 vs day 0, SIB 3 mg/kg, DIO rats
  Weight Gain: 13.54
[1]; day 14, SIB 3 mg/kg, DIO rats
  Total Body Weight: 388.70
[1]; day 14 vs day 0, SIB 3 mg/kg, DIO rats
  Weight Gain: 24.55
[1]; day 18, SIB 3 mg/kg, DIO rats
  Total Body Weight: 395.38
[1]; day 18 vs day 0, SIB 3 mg/kg, DIO rats
  Weight Gain: 31.23
[1]; day 21, SIB 3 mg/kg, DIO rats
  Total Body Weight: 407.06
[1]; day 21 vs day 0, SIB 3 mg/kg, DIO rats
  Weight Gain: 42.91
[1]; day 24, SIB 3 mg/kg, DIO rats
  Total Body Weight: 414.91
[1]; day 24 vs day 0, SIB 3 mg/kg, DIO rats
  Weight Gain: 50.75
[1]; day 28, SIB 3 mg/kg, DIO rats
  Total Body Weight: 425.99
[1]; day 28 vs day 0, SIB 3 mg/kg, DIO rats
  Weight Gain: 61.84
[1]; day 31, SIB 3 mg/kg, DIO rats
  Total Body Weight: 432.32
[1]; day 31 vs day 0, SIB 3 mg/kg, DIO rats
  Weight Gain: 68.17
[1]; day 35, SIB 3 mg/kg, DIO rats
  Total Body Weight: 442.55
[1]; day 35 vs day 0, SIB 3 mg/kg, DIO rats
  Weight Gain: 78.40
[1]; day 38, SIB 3 mg/kg, DIO rats
  Total Body Weight: 447.66
[1]; day 38 vs day 0, SIB 3 mg/kg, DIO rats
  Weight Gain: 83.51
[1]; day 42, SIB 3 mg/kg, DIO rats
  Total Body Weight: 454.96
[1]; day 42 vs day 0, SIB 3 mg/kg, DIO rats
  Weight Gain: 90.81
[1]; sibutramine 3 mg/kg
  blood biochemistry parameters vs HFD group: no statistically significant changes compared to the HFD group for any of the measured endpoints
  body weight gain vs HFD group: statistically significant decreases in body weight gains from day 2 to completion of the study on day 42
  organ and fat pad weights vs HFD group: statistically significant decreases in all categories of fat measurement
  total body weight vs HFD group: statistically significant reduction in body weight at day 2 through the remainder of the study (day 42)
  weight gain per day, food intake per day, food efficiency ratio (FER) vs HFD group: statically lower values than the HFD group for Weight Gain per day, Food Intake per day, and Food Efficiency Ratio
CCK peptide
  % CCK binding: 12.3 ± 1.6%
leptin; [2]
  Leptin (ng/ml) 2-week: 17.0 ± 0.43 ng/mL
leptin; [3]
  Leptin (ng/ml) 7-week: 20.4 ± 0.00 ng/mL
leptin; week 2 and week 7, Composition 2 1300 mg/kg/day, orlistat 40 mg/kg 2 times/day, sibutramine 10 mg/kg 1 time/day
  plasma leptin level vs HFD group: somewhat reduced leptin level after 2 weeks of treatment
